Experimental data as given in ChEMBL document CHEMBL4715790, “An Unusual Binding Model of the Methyl 9-Anilinothiazolo[5,4-f] quinazoline-2-carbimidates (EHT 1610 and EHT 5372) Confers High Selectivity for Dual-Specificity Tyrosine Phosphorylation-Regulated Kinases” (J Med Chem, 2016).

Legend:
[1] = molecular target: Dual specificity protein kinase CLK2 (Homo sapiens, UniProt P49760); experiment: Inhibition of CLK2 (unknown origin)
[2] = molecular target: Dual specificity protein kinase CLK3 (Homo sapiens, UniProt P49761); experiment: Inhibition of CLK3 (unknown origin)
[3] = molecular target: T1, Dual specificity tyrosine-phosphorylation-regulated kinase 2 (Homo sapiens, UniProt Q92630); experiment: Inhibition of DYRK2 (unknown origin)
T1 sequence (Q92630 whole entry): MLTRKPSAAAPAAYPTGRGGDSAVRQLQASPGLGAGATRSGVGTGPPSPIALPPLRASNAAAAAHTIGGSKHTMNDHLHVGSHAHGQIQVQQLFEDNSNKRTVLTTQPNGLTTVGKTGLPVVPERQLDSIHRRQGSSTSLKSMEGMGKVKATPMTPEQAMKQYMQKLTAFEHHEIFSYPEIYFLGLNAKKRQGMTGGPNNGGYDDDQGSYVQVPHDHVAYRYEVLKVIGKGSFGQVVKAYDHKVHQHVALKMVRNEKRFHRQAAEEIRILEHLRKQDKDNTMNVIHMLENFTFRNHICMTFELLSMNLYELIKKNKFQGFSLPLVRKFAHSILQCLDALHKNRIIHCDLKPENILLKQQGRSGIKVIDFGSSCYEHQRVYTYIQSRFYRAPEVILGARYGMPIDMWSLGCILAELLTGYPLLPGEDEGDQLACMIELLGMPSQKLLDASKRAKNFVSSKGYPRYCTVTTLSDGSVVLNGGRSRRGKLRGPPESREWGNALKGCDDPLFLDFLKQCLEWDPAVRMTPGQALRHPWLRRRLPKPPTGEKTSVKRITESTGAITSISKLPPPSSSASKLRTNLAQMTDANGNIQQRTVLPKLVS

[4] = molecular target: T2, Dual specificity tyrosine-phosphorylation-regulated kinase 3 (Homo sapiens, UniProt O43781); experiment: Inhibition of DYRK3 (unknown origin)
T2 sequence (O43781 whole entry): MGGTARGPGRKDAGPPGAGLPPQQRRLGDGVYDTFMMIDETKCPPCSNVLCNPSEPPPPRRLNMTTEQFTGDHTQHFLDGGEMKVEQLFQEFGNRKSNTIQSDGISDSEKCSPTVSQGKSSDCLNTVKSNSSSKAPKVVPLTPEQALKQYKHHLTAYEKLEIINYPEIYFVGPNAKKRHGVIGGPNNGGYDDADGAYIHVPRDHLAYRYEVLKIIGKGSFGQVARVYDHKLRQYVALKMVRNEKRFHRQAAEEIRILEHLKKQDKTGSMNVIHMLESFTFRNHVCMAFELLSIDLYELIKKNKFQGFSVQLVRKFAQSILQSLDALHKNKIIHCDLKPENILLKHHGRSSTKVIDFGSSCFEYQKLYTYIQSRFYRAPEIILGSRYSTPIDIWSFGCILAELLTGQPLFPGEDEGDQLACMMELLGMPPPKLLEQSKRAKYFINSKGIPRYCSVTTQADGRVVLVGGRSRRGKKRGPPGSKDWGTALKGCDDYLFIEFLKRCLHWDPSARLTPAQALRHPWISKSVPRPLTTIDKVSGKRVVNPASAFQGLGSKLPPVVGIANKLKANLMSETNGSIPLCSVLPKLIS

[5] = molecular target: T3, Dual specificity tyrosine-phosphorylation-regulated kinase 4 (Homo sapiens, UniProt Q9NR20); experiment: Inhibition of DYRK4 (unknown origin)
T3 sequence (Q9NR20 whole entry): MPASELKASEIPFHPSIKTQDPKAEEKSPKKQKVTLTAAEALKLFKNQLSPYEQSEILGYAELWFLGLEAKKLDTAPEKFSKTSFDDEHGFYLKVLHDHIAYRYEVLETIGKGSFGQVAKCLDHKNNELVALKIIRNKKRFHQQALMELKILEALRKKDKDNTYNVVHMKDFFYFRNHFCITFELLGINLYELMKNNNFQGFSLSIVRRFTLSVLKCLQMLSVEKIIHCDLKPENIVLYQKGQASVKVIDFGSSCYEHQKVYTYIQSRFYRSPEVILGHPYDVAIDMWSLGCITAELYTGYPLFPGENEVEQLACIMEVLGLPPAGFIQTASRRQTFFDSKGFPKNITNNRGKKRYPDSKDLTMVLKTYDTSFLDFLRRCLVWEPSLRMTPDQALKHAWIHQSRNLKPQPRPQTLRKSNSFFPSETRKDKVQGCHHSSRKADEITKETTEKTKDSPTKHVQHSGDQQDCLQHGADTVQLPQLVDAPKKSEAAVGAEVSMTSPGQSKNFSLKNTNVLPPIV

[6] = molecular target: T4, Glycogen synthase kinase-3 beta (Homo sapiens, UniProt P49841); experiment: Inhibition of GSK3B (unknown origin)
Target sequence in this assay (P49841 whole entry): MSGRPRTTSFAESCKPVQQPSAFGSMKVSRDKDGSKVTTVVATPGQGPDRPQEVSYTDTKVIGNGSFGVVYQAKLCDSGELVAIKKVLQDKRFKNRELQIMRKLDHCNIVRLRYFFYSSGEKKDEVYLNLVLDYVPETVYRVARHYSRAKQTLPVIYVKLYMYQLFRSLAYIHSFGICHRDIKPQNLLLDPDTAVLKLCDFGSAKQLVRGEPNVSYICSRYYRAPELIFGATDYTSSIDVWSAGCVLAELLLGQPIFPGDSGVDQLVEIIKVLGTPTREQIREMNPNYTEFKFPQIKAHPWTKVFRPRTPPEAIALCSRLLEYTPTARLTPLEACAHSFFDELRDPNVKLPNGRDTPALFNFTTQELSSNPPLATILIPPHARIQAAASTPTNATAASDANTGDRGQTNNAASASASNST

[7] = molecular target: Dual specificity protein kinase CLK4 (Homo sapiens, UniProt Q9HAZ1); experiment: Inhibition of CLK4 (unknown origin)
[8] = molecular target: T5, Dual specificity protein kinase CLK1 (Homo sapiens, UniProt P49759); experiment: Inhibition of CLK1 (unknown origin)
Target sequence in this assay (P49759 whole entry): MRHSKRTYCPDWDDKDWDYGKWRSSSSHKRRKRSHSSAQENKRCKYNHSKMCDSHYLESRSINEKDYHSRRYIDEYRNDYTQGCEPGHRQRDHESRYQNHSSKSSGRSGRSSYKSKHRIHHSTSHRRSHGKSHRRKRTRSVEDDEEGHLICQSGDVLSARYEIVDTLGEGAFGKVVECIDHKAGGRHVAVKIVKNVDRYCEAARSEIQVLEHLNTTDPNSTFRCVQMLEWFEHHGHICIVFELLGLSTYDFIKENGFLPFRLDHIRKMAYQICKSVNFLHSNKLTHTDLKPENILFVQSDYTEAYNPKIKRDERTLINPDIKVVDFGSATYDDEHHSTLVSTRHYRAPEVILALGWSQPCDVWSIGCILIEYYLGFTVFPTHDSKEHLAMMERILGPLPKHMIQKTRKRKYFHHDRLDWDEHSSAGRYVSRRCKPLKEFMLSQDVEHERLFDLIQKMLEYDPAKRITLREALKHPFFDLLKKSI

[9] = molecular target: T6, Dual specificity tyrosine-phosphorylation-regulated kinase 2 (Homo sapiens) (UniProt Q92630); experiment: Binding affinity to DYRK2 (unknown origin) assessed as change in melting temperature of protein at 10 uM by Sypro-orange dye based DSF assay
T6 sequence (whole entry): T1 sequence (Q92630 whole entry)

[10] = molecular target: Glycogen synthase kinase-3 alpha (Homo sapiens, UniProt P49840); experiment: Inhibition of GSK3A (unknown origin)
[11] = molecular target: T4, Glycogen synthase kinase-3 beta; experiment: Binding affinity to GSK3B (unknown origin) assessed as change in melting temperature of protein at 10 uM by Sypro-orange dye based DSF assay
Target sequence in this assay (P49841 whole entry, looked up): as the sequence (P49841 whole entry) above

[12] = molecular target: T5, Dual specificity protein kinase CLK1; experiment: Binding affinity to CLK1 (unknown origin) assessed as change in melting temperature of protein at 10 uM by Sypro-orange dye based DSF assay
Target sequence in this assay (P49759 whole entry, looked up): as the sequence (P49759 whole entry) above

[13] = molecular target: Dual specificity tyrosine-phosphorylation-regulated kinase 1A (Homo sapiens) (UniProt Q13627); experiment: Binding affinity to 6x-His-tagged DYRK1A (unknown origin) assessed as change in melting temperature of protein at 10 uM by Sypro-orange dye based DSF assay

Dual specificity protein kinase CLK4, sequence (Q9HAZ1 whole entry): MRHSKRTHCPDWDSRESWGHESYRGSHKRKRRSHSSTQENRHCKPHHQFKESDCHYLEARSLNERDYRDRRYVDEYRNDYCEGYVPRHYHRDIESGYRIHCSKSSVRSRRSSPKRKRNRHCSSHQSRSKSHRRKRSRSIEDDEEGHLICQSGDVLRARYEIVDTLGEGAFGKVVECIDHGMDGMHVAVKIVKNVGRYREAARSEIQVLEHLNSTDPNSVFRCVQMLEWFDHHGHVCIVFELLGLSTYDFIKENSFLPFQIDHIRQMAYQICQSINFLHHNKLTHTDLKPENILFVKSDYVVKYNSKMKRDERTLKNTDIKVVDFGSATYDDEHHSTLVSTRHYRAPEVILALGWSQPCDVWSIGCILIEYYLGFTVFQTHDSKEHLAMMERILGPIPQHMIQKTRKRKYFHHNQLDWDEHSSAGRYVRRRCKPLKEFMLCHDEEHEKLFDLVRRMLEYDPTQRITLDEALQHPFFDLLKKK
Dual specificity protein kinase CLK2, sequence (P49760 whole entry): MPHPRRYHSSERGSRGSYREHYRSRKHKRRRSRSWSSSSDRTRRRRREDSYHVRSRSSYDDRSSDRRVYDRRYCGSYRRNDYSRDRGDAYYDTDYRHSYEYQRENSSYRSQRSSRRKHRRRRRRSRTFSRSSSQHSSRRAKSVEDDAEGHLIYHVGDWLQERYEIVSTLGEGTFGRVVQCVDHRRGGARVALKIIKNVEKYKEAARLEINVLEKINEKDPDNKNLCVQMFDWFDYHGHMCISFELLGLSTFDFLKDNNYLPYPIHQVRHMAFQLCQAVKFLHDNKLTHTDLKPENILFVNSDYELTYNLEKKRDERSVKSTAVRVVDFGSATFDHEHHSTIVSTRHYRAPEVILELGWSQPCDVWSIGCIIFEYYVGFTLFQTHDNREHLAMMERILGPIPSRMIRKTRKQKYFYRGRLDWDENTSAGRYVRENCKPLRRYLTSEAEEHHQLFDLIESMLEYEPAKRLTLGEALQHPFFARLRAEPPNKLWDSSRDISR
Dual specificity protein kinase CLK3, sequence (P49761 whole entry): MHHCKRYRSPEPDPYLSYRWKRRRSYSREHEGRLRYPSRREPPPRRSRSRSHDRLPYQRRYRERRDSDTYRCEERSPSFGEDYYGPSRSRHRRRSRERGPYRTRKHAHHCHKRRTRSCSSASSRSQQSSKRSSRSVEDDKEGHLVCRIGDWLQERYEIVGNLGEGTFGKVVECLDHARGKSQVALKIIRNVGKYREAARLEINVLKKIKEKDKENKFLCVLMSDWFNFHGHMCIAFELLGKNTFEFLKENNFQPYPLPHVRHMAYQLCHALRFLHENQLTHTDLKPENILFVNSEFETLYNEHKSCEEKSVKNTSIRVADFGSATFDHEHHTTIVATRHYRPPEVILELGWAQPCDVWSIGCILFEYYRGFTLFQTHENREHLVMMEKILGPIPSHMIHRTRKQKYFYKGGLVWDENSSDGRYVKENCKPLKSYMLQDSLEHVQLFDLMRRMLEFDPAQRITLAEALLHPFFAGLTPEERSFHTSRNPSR
Glycogen synthase kinase-3 alpha, sequence (P49840 whole entry): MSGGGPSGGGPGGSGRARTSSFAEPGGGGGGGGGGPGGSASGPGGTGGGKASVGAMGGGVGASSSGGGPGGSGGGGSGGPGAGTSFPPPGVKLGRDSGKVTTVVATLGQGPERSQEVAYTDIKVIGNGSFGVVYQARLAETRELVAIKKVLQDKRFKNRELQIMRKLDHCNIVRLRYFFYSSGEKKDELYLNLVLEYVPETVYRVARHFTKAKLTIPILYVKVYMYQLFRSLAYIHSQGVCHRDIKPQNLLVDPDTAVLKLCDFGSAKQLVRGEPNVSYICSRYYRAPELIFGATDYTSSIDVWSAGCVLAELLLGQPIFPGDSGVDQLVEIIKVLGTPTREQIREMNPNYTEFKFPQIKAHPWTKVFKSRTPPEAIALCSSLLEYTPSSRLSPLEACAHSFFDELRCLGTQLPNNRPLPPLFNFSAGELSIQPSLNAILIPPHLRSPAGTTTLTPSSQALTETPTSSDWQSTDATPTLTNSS

Row | SMILES | IC50 [1] [µM] | IC50 [2] [µM] | IC50 [3] [µM] | IC50 [4] [µM] | IC50 ([5]; read-out: IC50) [µM] | IC50 [6] [µM] | IC50 [7] [µM] | IC50 [8] [µM] | ΔTm [9] [°C] | IC50 [10] [µM] | ΔTm [11] [°C] | ΔTm [12] [°C] | ΔTm [13] [°C] | IC50 [5]
1 | COC(=N)c1nc2ccc3ncnc(Nc4ccc(OC)cc4F)c3c2s1 | 0.0325 | 1.42 | 0.00316 | 0.0211 | 1.57 | 0.143 | 0.032 | 0.011 | 5 | 0.00911 | 5 | 5 | 9 | –
2 | COC(=N)c1nc2ccc3ncnc(Nc4ccc(Cl)cc4Cl)c3c2s1 | 0.0888 | > 10 | 0.0108 | 0.0932 | – | 0.221 | 0.059 | 0.0228 | 5 | 0.00744 | 5 | 5 | 9 | Not Active
